Assay results published in patent publication US20260042769A1, “TRIARYL AGONISTS OF ALPHA-2 ADRENERGIC RECEPTORS” (ALCEPTOR THERAPEUTICS, INC., priority 2023, published 2026).

Target: T1, human ADRA2B receptor (Homo sapiens, UniProt P18089)
T1 construct: expressed in transfected cells
T1 sequence (P18089 1-450): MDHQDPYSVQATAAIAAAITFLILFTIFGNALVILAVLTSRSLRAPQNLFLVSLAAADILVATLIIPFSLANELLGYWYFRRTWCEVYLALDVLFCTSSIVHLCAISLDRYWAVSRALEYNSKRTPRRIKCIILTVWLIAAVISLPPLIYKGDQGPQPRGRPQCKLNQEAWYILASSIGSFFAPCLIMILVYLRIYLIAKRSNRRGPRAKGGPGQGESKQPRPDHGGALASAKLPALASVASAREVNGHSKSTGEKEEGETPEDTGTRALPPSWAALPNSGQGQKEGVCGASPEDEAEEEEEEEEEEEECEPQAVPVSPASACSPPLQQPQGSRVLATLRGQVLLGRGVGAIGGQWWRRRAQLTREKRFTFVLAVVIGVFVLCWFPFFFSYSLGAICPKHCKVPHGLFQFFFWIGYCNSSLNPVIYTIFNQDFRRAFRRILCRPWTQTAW
Assay: ADRA2B arrestin agonist assay
Format: cell-based
Conditions: CHO-K1 cells stably expressing human ADRA2B; read-out: Beta-Arrestin - Human Alpha2B EC50
Summary of the method: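 CHO-K1 cells stably expressing human ADRA2B, thawed from frozen stock and plated overnight, were treated with agonist for 2 h at 37 °C. Arrestin recruitment detected by luminescence after 2 h with detection reagents at room temperature.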

EC50 [nM]	SMILES
10 to 50	COc1nccc(CC(c2cccc(C)c2)c2c[nH]cn2)n1 (stereo not shown) [Compound 337, 4-[2-(4-imidazolyl)-2-(m-tolyl)ethyl]-2-methoxypyrimidine]
50 to 500	COc1ncc(CC(c2c[nH]cn2)c2cccc(C)c2C)cn1 (stereo not shown) [Compound 339, 5-[2-(4-imidazolyl)-2-(2,3-xylyl)ethyl]-2-methoxypyrimidine]
50 to 500	COc1nccc(CC(c2cccc(Cl)c2)c2c[nH]cn2)n1 (stereo not shown) [Compound 340, 4-[2-(m-chlorophenyl)-2-(4-imidazolyl)ethyl]-2-methoxypyrimidine]
< 10	Cc1nccc(CC(c2c[nH]cn2)c2cccc3cccnc23)n1 (stereo not shown) [Compound 341, 4-[2-(4-imidazolyl)-2-(8-quinolyl)ethyl]-2-methylpyrimidine]
< 10	Cc1nccc(CC(c2c[nH]cn2)c2cccc3ccn(C)c23)n1 (stereo not shown) [Compound 342, 4-[2-(4-imidazolyl)-2-(1-methyl-7-indolyl)ethyl]-2-methylpyrimidine]
< 10	Cc1nccc(CC(c2c[nH]cn2)c2cccc3c2OCCO3)n1 (stereo not shown) [Compound 343, 4-[2-(2,3-dihydro-1,4-benzodioxin-5-yl)-2-(4-imidazolyl)ethyl]-2-methylpyrimidine]
< 10	OCc1nccc(CC(c2c[nH]cn2)c2cccc3c2OCC3)n1 (stereo not shown) [Compound 344, {4-[2-(2,3-dihydro-1-benzofuran-7-yl)-2-(4-imidazolyl)ethyl]-2-pyrimidinyl}methanol]
< 10	COCc1nccc(C[C@@H](c2c[nH]cn2)c2cccc(C)c2C)n1 [Compound 345, 4-[(R)-2-(4-imidazolyl)-2-(2,3-xylyl)ethyl]-2-(methoxymethyl)pyrimidine]
> 500	COCc1nccc(C[C@H](c2c[nH]cn2)c2cccc(C)c2C)n1 [Compound 346, 4-[(S)-2-(4-imidazolyl)-2-(2,3-xylyl)ethyl]-2-(methoxymethyl)pyrimidine]
50 to 500	COc1c(C)cccc1C(Cc1ccnc(CO)n1)c1c[nH]cn1 (stereo not shown) [Compound 347, {4-[2-(4-imidazolyl)-2-(2-methoxy-3-tolyl)ethyl]-2-pyrimidinyl}methanol]
< 10	COc1nccc(C[C@@H](c2c[nH]cn2)c2cccc3ccn(C)c23)n1 [Compound 348, 4-[(R)-2-(4-imidazolyl)-2-(1-methyl-7-indolyl)ethyl]-2-methoxypyrimidine]
> 500	COc1nccc(C[C@H](c2c[nH]cn2)c2cccc3ccn(C)c23)n1 [Compound 349, 4-[(S)-2-(4-imidazolyl)-2-(1-methyl-7-indolyl)ethyl]-2-methoxypyrimidine]
50 to 500	COc1nccc(CC(c2c[nH]cn2)c2cccc3cnn(C)c23)n1 (stereo not shown) [Compound 350, 7-[1-(4-imidazolyl)-2-(2-methoxy-4-pyrimidinyl)ethyl]-1-methyl-1H-indazole]
> 500	Cc1nccc(C[C@H](c2c[nH]cn2)c2cccc3c2OCCCO3)n1 [Compound 352, 4-[(S)-2-(3,4-dihydro-2H-1,5-benzodioxepin-6-yl)-2-(4-imidazolyl)ethyl]-2-methylpyrimidine]
< 10	Cc1cccc(C(Cc2ccnc(C(C)(C)O)n2)c2c[nH]cn2)c1C (stereo not shown) [Compound 353, 2-{4-[2-(4-imidazolyl)-2-(2,3-xylyl)ethyl]-2-pyrimidinyl}-2 propanol]
> 500	COc1nccc(CC(c2c[nH]cn2)c2ccccc2C(F)(F)F)n1 (stereo not shown) [Compound 354, 4-{2-(4-imidazolyl)-2-[o-(trifluoromethyl)phenyl]eth-yl}-2-methoxypyrimidine]
10 to 50	COCc1nccc(CC(c2c[nH]cn2)c2cccc3c2OCCO3)n1 (stereo not shown) [Compound 356, 4-[2-(2,3-dihydro-1,4-benzodioxin-5-yl)-2-(4-imidazolyl)ethyl]-2-(methoxymethyl)pyrimidine]
> 500	COc1nccc(CC(c2c[nH]cn2)c2cccc3c(C4CC4)noc23)n1 (stereo not shown) [Compound 357, 3-cyclopropyl-7-[1-(4-imidazolyl)-2-(2-methoxy-4-pyrimidinyl)ethyl]-1,2-benzisoxazole]

EC50 [nM]	SMILES
> 500	COc1nccc(CC(c2c[nH]cn2)c2ccccc2S(=O)(=O)N2CCCC2)n1 (stereo not shown) [Compound 358, 4-{2-(4-imidazolyl)-2-[o-(1-pyrrolidinylsulfonyl)phenyl]ethyl}-2-methoxypyrimidine]
10 to 50	[2H]C([2H])([2H])Oc1c(C)cccc1C(Cc1ccnc(C)n1)c1c[nH]cn1 (stereo not shown) [Compound 359, 4-{2-(4-imidazolyl)-2-[2-(^2H3)methoxy-3-tolyl]ethyl}-2-methylpyrimidine]
50 to 500	c1cc2c(c([C@@H](Cc3cocn3)c3c[nH]cn3)c1)OCC2 [Compound 371, 4-[(R)-2-(2,3-dihydro-1-benzofuran-7-yl)-2-(4-imidazolyl)ethyl] 1,3-oxazole]
50 to 500	c1cc2c(c([C@H](Cc3cocn3)c3c[nH]cn3)c1)OCC2 [Compound 372, 4-[(S)-2-(2,3-dihydro-1-benzofuran-7-yl)-2-(4-imidazolyl)ethyl] 1,3-oxazole]
10 to 50	Cc1nc(C[C@@H](c2c[nH]cn2)c2cccc(C)c2C)co1 [Compound 373, 4-[(R)-2-(4-imidazolyl)-2-(2,3-xylyl)ethyl]-2-methyl-1,3-oxazole]
> 500	Cc1nc(C[C@H](c2c[nH]cn2)c2cccc(C)c2C)co1 [Compound 374, 4-[(S)-2-(4-imidazolyl)-2-(2,3-xylyl)ethyl]-2-methyl-1,3-oxazole]
50 to 500	COc1c(C)cccc1C(Cc1cnco1)c1c[nH]cn1 (stereo not shown) [Compound 375, 5-[2-(4-imidazolyl)-2-(2-methoxy-3-tolyl)ethyl]-1,3-oxazole]
50 to 500	Cn1ccc2cccc(C(Cc3cocn3)c3c[nH]cn3)c21 (stereo not shown) [Compound 377, 4-[2-(4-imidazolyl)-2-(1-methyl-7-indolyl)ethyl]-1,3-oxazole]
50 to 500	Cn1ncc2c(C(Cc3cocn3)c3c[nH]cn3)cccc21 (stereo not shown) [Compound 378, 4-[1-(4-imidazolyl)-2-(1,3-oxazol-4-yl)ethyl]-1-methyl-1H-indazole]
< 10	Cc1nc(C[C@@H](c2c[nH]cn2)c2cccc(C)c2C)c(C)o1 [Compound 379, 4-[(R)-2-(4-imidazolyl)-2-(2,3-xylyl)ethyl]-2,5-dimethyl-1,3-oxazole]
> 500	Cc1nc(C[C@H](c2c[nH]cn2)c2cccc(C)c2C)c(C)o1 [Compound 380, 4-[(S)-2-(4-imidazolyl)-2-(2,3-xylyl)ethyl]-2,5-dimethyl-1,3-oxazole]
> 500	COc1c(C)cccc1[C@@H](Cc1ccnn1C)c1c[nH]cn1 [Compound 381, 5-[(R)-2-(4-imidazolyl)-2-(2-methoxy-3-tolyl)ethyl]-1-methylpyrazole]
10 to 50	COc1c(C)cccc1[C@H](Cc1ccnn1C)c1c[nH]cn1 [Compound 382, 5-[(S)-2-(4-imidazolyl)-2-(2-methoxy-3-tolyl)ethyl]-1-methylpyrazole]
> 500	c1cc2c(c([C@@H](Cc3cocn3)c3c[nH]cn3)c1)OCCO2 [Compound 383, 4-[(R)-2-(2,3-dihydro-1,4-benzodioxin-5-yl)-2-(4-imidazolyl)ethyl] 1,3-oxazole]
10 to 50	c1cc2c(c([C@H](Cc3cocn3)c3c[nH]cn3)c1)OCCO2 [Compound 384, 4-[(S)-2-(2,3-dihydro-1,4-benzodioxin-5-yl)-2-(4-imidazolyl)ethyl]-1,3-oxazole]
< 10	Cc1cnc(CC(c2c[nH]cn2)c2cccc(C)c2C)s1 (stereo not shown) [Compound 385, 2-[2-(4-imidazolyl)-2-(2,3-xylyl)ethyl]-5-methyl-1,3-thiazole]
> 500	Cc1cccc(C(Cc2c(C)ccnc2C)c2c[nH]cn2)c1C (stereo not shown) [Compound 386, 4-[2-(2,4-dimethyl-3-pyridyl)-1-(2,3-xylyl)ethyl]imidazole]
50 to 500	CN1CCc2cccc(C(Cc3cn(C)nn3)c3c[nH]cn3)c21 (stereo not shown) [Compound 387, 4-[2-(4-imidazolyl)-2-(1-methyl-7-indolinyl)ethyl]-1-methyl-1H-1,2,3-triazole]

SMILES	EC50 [nM]
Cc1cccc([C@H](Cc2cnco2)c2c[nH]cn2)c1C [Compound 364, 5-[(S)-2-(4-imidazolyl)-2-(2,3-xylyl)ethyl]-1,3-oxazole]	< 10
Cc1cccc([C@H](Cc2cocn2)c2c[nH]cn2)c1C [Compound 366, 4-[(S)-2-(4-imidazolyl)-2-(2,3-xylyl)ethyl]-1,3-oxazole]	< 10
Cc1cccc([C@@H](Cc2cocn2)c2c[nH]cn2)c1C [Compound 367, 4-[(R)-2-(4-imidazolyl)-2-(2,3-xylyl)ethyl]-1,3-oxazole]	> 500
Cc1cccc(C(Cc2cocn2)c2c[nH]cn2)c1F (stereo not shown) [Compound 368, 4-[2-(2-fluoro-3-tolyl)-2-(4-imidazolyl)ethyl]-1,3-oxazole]	50 to 500
Cc1cccc([C@@H](Cc2cnco2)c2c[nH]cn2)c1F [Compound 369, 5-[(R)-2-(2-fluoro-3-tolyl)-2-(4-imidazolyl)ethyl]-1,3-oxazole]	> 500
Cc1cccc([C@H](Cc2cnco2)c2c[nH]cn2)c1F [Compound 370, 5-[(S)-2-(2-fluoro-3-tolyl)-2-(4-imidazolyl)ethyl]-1,3-oxazole]	10 to 50
Cc1cccc(C(Cc2cocn2)c2c[nH]cn2)c1Cl (stereo not shown) [Compound 376, 4-[2-(2-chloro-3-tolyl)-2-(4-imidazolyl)ethyl]-1,3-oxazole]	10 to 50
